Experiments:
S. aureus ATCC 43300 = assay: Salt sensitivity (MIC in the presence of physiological salts); format: cell-based, Staphylococcus aureus; set-up: key: MIC in μg/mL (two-fold dilutions 256 to 0.25 μg/mL); conditions: for MIC, MgCl2: 1 mM MgCl2, unit not given in Table 4; for MIC, FeCl3: 4 mM FeCl3, unit not given in Table 4; for MIC, KCl: 4.5 mM KCl; for MIC, KCl / MIC, NaCl: unit not given in Table 4; for MIC, NaCl: 150 mM NaCl; for MIC, Control: no added salt, unit not given in Table 4 (Table 3 MIC in μg/mL)
Procedure: (§1) MIC was determined using the broth microdilution method with minor modification. In brief, bacteria (S. aureus ATCC 43300, E. faecalis ATCC 29212, E. coli ATCC 25922, P. aeruginosa ATCC 27853, L. monocytogenes CVCC 3764, B. cereus CVCC 4101, S. Castellani CGMCC 1.1869, and the multidrug-resistant E. coli strain) were cultured in nutrient broth (NB) medium (Macklin, Shanghai, China) to the logarithmic phase and diluted to 1 × 10^6 colony forming units (CFUs)/mL. The MDLs were dissolved to a final concentration of 256~0.25 μg/mL in NB medium using two-fold dilutions. A total of 50 μL of different concentrations of the MDL solutions and an equal volume of bacterial suspension were added to a 96-well plate, which was then incubated at 37 °C for 18 h. The minimum concentrations of the MDLs with no visible growth of bacteria were defined as the corresponding MICs. Media containing bacteria without the MDLs were set as the negative control. Each measurement was performed independently three times.
(§2) This was carried out in triplicate and tested at least twice.

[1] = Hydrophobicity assay (RP-HPLC retention time); format: physicochemical; conditions: chromatographic, ChromCore120 C18 column 4.6 x 250 mm 5 μm; 0.1 mg/mL in deionized water; A 0.1% TFA in water, B 0.1% TFA in acetonitrile; 5% B to 90% B over 30 min; 1 mL/min; UV 220 nm; three independent experiments
Text: The hydrophobicity, amphipathicity, and positive charge distribution of lipopeptides are crucial for their antimicrobial activities. Among these, hydrophobicity has been deemed essential for promoting a hydrophobic interaction with the lipid bilayer, leading to membrane disruption, cytoplasm leakage, and eventual cell death. Lipopeptides with different peptide sequences and chain lengths usually show different hydrophobicities, generating different RTs in the RP-HPLC analysis. The more hydrophobic the lipopeptide, the longer the RT on the column.
Each MDL was dissolved and diluted to 0.1 mg/mL in deionized water (obtained in-house) and then subjected to RP-HPLC on a ChromCore120 C18 column (4.6 × 250 mm, 5 μm) (NanoChrom, Suzhou, China) using 0.1% trifluoroacetic acid (TFA) (Macklin, Shanghai, China) in water as solvent A and 0.1% TFA in acetonitrile (Merck, Darmstadt, Germany) as solvent B. The elution gradient was as follows: 5% B to 90% B over 30 min, 90% B maintained for 2 min, and 90% B to 5% B over 1 min. The flow rate was 1 mL/min and measurements were taken at 220 nm. The retention time was recorded for each MDL.

[2] = CD measurements of secondary structure; format: physicochemical; conditions: 0.5 mg/mL, 25 °C
Procedure: The CD spectra of the MDLs were measured at 25 °C on a Chirascan spectrometer (Applied Photophysics, Surrey, UK) using a quartz cell with a 1.0 mm path length, recording from 180 to 260 nm. A scanning speed of 50 nm/min was used and the bandwidth was 1 nm. The optical path and slit width were 0.1 cm and 0.1 nm, respectively. […], 50% TFE (Macklin, Shanghai, China) was used to mimic the hydrophobic condition of the microbial membrane, and 25 mM SDS (Macklin, Shanghai, China) micelles were used to mimic the negatively charged prokaryotic membrane. The observed ellipticity was converted to molar ellipticity using the following equation: θ=θobs(MRW/10×c×l) where [θ] is the molar ellipticity (deg·cm^2·dmol^−1), θobs is the observed ellipticity corrected for the buffer at a given wavelength (mdeg), MRW is the mean residual molecular weight (molecular weight/number of amino acids), c is the peptide concentration (mg/mL), and l is the path length (cm). Assuming lipopeptides were a two-state model, the percentage in the α-helix structure of the MDLs was calculated using the following equation: α-helical content=−([θ]222 +2000)/30,000×100%

E. coli ATCC 25922 = assay: Salt sensitivity (MIC in the presence of physiological salts); format: cell-based, Escherichia coli; set-up: key to MIC, NaCl / MIC, KCl / MIC, MgCl2: MIC in μg/mL (two-fold dilutions 256 to 0.25 μg/mL); conditions: for MIC, MgCl2: 1 mM MgCl2, unit not given in Table 4; for MIC, FeCl3: 4 mM FeCl3, unit not given in Table 4; for MIC, KCl: 4.5 mM KCl; for MIC, KCl / MIC, NaCl: unit not given in Table 4; for MIC, NaCl: 150 mM NaCl; for MIC, Control: no added salt, unit not given in Table 4 (Table 3 MIC in μg/mL)
Procedure: as §1, §2

Row | SMILES | MIC, MgCl2 (S. aureus ATCC 43300) | MIC, FeCl3 (S. aureus ATCC 43300) | MIC, KCl (S. aureus ATCC 43300) | MIC, NaCl (S. aureus ATCC 43300) | MIC, Control (S. aureus ATCC 43300) | RT, Min (RP-HPLC retention time, measure of hydrophobicity) [1] [min] | α-Helix, % ([2]; 25 mM SDS) [%] | β-Fold, % ([2]; 25 mM SDS) [%] | α-Helix, % ([2]; 50% TFE) [%] | β-Fold, % ([2]; 50% TFE) [%] | α-Helix, % ([2]; PBS Buffer) [%] | β-Fold, % ([2]; PBS Buffer) [%] | MIC, MgCl2 (E. coli ATCC 25922) | MIC, FeCl3 (E. coli ATCC 25922) | MIC, KCl (E. coli ATCC 25922) | MIC, NaCl (E. coli ATCC 25922) | MIC, Control (E. coli ATCC 25922)
1 | CCCCCCCCCCCC(=O)NCC(=O)N[C@H](C(=O)NCC(=O)N[C@@H](C)C(=O)N[C@H](C(=O)N[C@@H](CC(C)C)C(=O)N[C@@H](CCCCN)C(=O)N[C@H](C(=O)N[C@@H](CC(C)C)C(=O)N[C@H](C(=O)N[C@H](C(=O)NCC(=O)N[C@@H](CC(C)C)C(=O)N1CCC[C@H]1C(=O)N[C@@H](C)C(=O)N[C@@H](CC(C)C)C(=O)N[C@H](C(=O)N[C@@H](CO)C(=O)N[C@@H](Cc1c[nH]c2ccccc12)C(=O)N[C@H](C(=O)N[C@@H](CCCCN)C(=O)N[C@@H](CCCNC(=N)N)C(=O)N[C@@H](CCCCN)C(=O)N[C@@H](CCCNC(=N)N)C(=O)N[C@@H](CCC(N)=O)C(=O)N[C@@H](CCC(N)=O)C(N)=O)[C@@H](C)CC)[C@@H](C)CC)[C@@H](C)O)[C@@H](C)O)C(C)C)C(C)C)[C@@H](C)CC [Peptide C12-Mel] | 64 | 64 | 32 | 16 | 8 | 23.344 ± 0.004 | 15.9 | 29.5 | 19 | 21.5 | 11.5 | 31.3 | 128 | 128 | 32 | 32 | –
2 | CCCCCCCCCCCCCC(=O)NCC(=O)N[C@H](C(=O)NCC(=O)N[C@@H](C)C(=O)N[C@H](C(=O)N[C@@H](CC(C)C)C(=O)N[C@@H](CCCCN)C(=O)N[C@H](C(=O)N[C@@H](CC(C)C)C(=O)N[C@H](C(=O)N[C@H](C(=O)NCC(=O)N[C@@H](CC(C)C)C(=O)N1CCC[C@H]1C(=O)N[C@@H](C)C(=O)N[C@@H](CC(C)C)C(=O)N[C@H](C(=O)N[C@@H](CO)C(=O)N[C@@H](Cc1c[nH]c2ccccc12)C(=O)N[C@H](C(=O)N[C@@H](CCCCN)C(=O)N[C@@H](CCCNC(=N)N)C(=O)N[C@@H](CCCCN)C(=O)N[C@@H](CCCNC(=N)N)C(=O)N[C@@H](CCC(N)=O)C(=O)N[C@@H](CCC(N)=O)C(N)=O)[C@@H](C)CC)[C@@H](C)CC)[C@@H](C)O)[C@@H](C)O)C(C)C)C(C)C)[C@@H](C)CC [Peptide C14-Mel] | 256 | 256 | 64 | 64 | 32 | 25.621 ± 0.002 | 15.5 | 31.7 | 16 | 25.2 | 12 | 31 | 256 | 256 | 64 | 128 | 32
3 | CCCCCCCCCCCCCCCC(=O)NCC(=O)N[C@H](C(=O)NCC(=O)N[C@@H](C)C(=O)N[C@H](C(=O)N[C@@H](CC(C)C)C(=O)N[C@@H](CCCCN)C(=O)N[C@H](C(=O)N[C@@H](CC(C)C)C(=O)N[C@H](C(=O)N[C@H](C(=O)NCC(=O)N[C@@H](CC(C)C)C(=O)N1CCC[C@H]1C(=O)N[C@@H](C)C(=O)N[C@@H](CC(C)C)C(=O)N[C@H](C(=O)N[C@@H](CO)C(=O)N[C@@H](Cc1c[nH]c2ccccc12)C(=O)N[C@H](C(=O)N[C@@H](CCCCN)C(=O)N[C@@H](CCCNC(=N)N)C(=O)N[C@@H](CCCCN)C(=O)N[C@@H](CCCNC(=N)N)C(=O)N[C@@H](CCC(N)=O)C(=O)N[C@@H](CCC(N)=O)C(N)=O)[C@@H](C)CC)[C@@H](C)CC)[C@@H](C)O)[C@@H](C)O)C(C)C)C(C)C)[C@@H](C)CC [Peptide C16-Mel] | >256 | >256 | 256 | 128 | 64 | 26.892 ± 0.005 | 15.2 | 33 | 14.3 | 26.8 | 12.5 | 30.4 | >256 | >256 | 256 | >256 | 128

From publication PMC10815238, “New N-Terminal Fatty-Acid-Modified Melittin Analogs with Potent Biological Activity” (International Journal of Molecular Sciences, 2024)
